Tests used:
[1] = Resistance index, ratio of mitoxantrone IC50 for human H460/MX20 cells to mitoxantrone IC50 for human H460 cells at 10 uM (reference value: 28.66)
[2] = Resistance index, ratio of mitoxantrone IC50 for human H460/MX20 cells to mitoxantrone IC50 for human H460 cells at 3 uM (reference value: 28.66)
[3] = Resistance index, ratio of mitoxantrone IC50 for human H460/MX20 cells to mitoxantrone IC50 for human H460 cells at 1 uM (reference value: 28.66)
[4] = Inhibition of ABCG2 in human H460/MX20 cells assessed as potentiation of mitoxantrone induced antiproliferative activity by measuring mitoxantrone IC50 at 10 uM preincubated for 2 hrs followed by mitoxantrone addition measured after 72 hrs by MTT assay (reference value: 6.161 +/- 0.172 microM)
[5] = Cytotoxicity against human NCI-H460/MX20 cells after 72 hrs by MTT assay; type: cell-based; conditions: NCI-H460/MX20, 72 h
[6] = system: NCI-H460; test: Cytotoxicity against human H460 cells after 72 hrs by MTT assay; type: cell-based; conditions: NCI-H460, 72 h
[7] = Inhibition of ABCG2 in human H460/MX20 cells assessed as potentiation of mitoxantrone induced antiproliferative activity by measuring mitoxantrone IC50 at 3 uM preincubated for 2 hrs followed by mitoxantrone addition measured after 72 hrs by MTT assay (reference value: 6.161 +/- 0.172 microM)
[8] = Inhibition of ABCG2 in human H460/MX20 cells assessed as potentiation of mitoxantrone induced antiproliferative activity by measuring mitoxantrone IC50 at 1 uM preincubated for 2 hrs followed by mitoxantrone addition measured after 72 hrs by MTT assay (reference value: 6.161 +/- 0.172 microM)
[9] = molecular target: T1, Broad substrate specificity ATP-binding cassette transporter ABCG2 (Homo sapiens, UniProt Q9UNQ0); test: Inhibition of ABCG2 (unknown origin) expressed in high five insect cell membrane vesicles assessed as reduction in BCRP ATPase activity preincubated for 3 mins followed by ATP addition measured for 20 mins
T1 sequence (Q9UNQ0 whole entry): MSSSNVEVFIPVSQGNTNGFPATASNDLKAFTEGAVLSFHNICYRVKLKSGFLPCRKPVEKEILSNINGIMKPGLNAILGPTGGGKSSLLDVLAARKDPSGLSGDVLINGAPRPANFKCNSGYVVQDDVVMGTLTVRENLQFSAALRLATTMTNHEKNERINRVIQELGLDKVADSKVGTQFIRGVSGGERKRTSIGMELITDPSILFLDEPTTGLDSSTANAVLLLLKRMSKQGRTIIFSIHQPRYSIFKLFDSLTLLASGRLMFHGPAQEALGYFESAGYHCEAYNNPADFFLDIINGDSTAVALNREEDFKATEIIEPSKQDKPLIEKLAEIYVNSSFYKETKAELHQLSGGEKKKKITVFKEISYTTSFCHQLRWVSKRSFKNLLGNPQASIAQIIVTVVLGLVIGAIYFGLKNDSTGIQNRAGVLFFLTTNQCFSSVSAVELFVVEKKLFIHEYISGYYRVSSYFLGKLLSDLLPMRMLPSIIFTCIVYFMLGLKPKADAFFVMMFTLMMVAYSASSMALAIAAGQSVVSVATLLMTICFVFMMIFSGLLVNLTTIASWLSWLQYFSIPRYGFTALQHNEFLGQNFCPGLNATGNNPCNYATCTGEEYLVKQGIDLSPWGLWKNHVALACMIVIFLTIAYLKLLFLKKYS

[10] = molecular target: T2, ABCG2 (BCRP) (Homo sapiens, UniProt Q9UNQ0); test: Activation of ABCG2 (unknown origin) expressed in high five insect cell membrane vesicles assessed as induction of basal BCRP ATPase activity at 10 uM preincubated for 3 mins followed by ATP addition measured for 20 mins relative to control; conditions: High Five insect cell membrane vesicles expressing ABCG2, read-out: FC
T2 sequence (Q9UNQ0 whole entry): T1 sequence (Q9UNQ0 whole entry)

[11] = molecular target: T1, Broad substrate specificity ATP-binding cassette transporter ABCG2; test: Inhibition of ABCG2 (unknown origin) expressed in high five insect cell membrane vesicles assessed as reduction in basal BCRP ATPase activity up to 30 uM preincubated for 3 mins followed by ATP addition measured for 20 mins relative to control

Row | SMILES | Ratio IC50 [1] | Ratio IC50 [2] | Ratio IC50 [3] | IC50 [4] [µM] | IC50 [5] [µM] | IC50 [6] [µM] | IC50 [7] [µM] | IC50 [8] [µM] | inhibition (INH) [9] | fold induction at 20 min, 10 µM [10] | fold change (FC) [11]
1 | COc1ccc2c3c([nH]c2c1)[C@H](C=C(C)C)N1C(=O)[C@@H]2CCCN2C(=O)[C@@H]1C3 [FUMITREMORGIN] | 1.49 | 2.1 | 2.85 | 0.321 | – | – | – | – | – | – | –
2 | COc1cccc(-n2nnc(-c3ccccc3NC(=O)c3ccc([N+](=O)[O-])cc3)n2)c1 | 1.43 | 1.8 | 2.72 | 0.307 | > 100 | > 100 | – | – | – | – | –
3 | COc1cccc(-n2nnc(-c3ccccc3NC(=O)Nc3ccc(N)cc3)n2)c1 | 1.76 | 2.66 | 3.9 | – | > 100 | > 100 | 0.571 | – | – | – | –
4 | COc1ccc(C(=O)Nc2ccccc2-c2nnn(-c3ccc(OC)cc3)n2)cc1 | 2.29 | 2.35 | 3.47 | – | > 100 | > 100 | – | – | – | – | –
5 | COc1cccc(-n2nnc(-c3ccccc3NC(=O)Nc3ccc(N=C=S)cc3)n2)c1 | 2.56 | 3.1 | 7.05 | 0.55 | > 100 | > 100 | – | 1.515 | – | – | –
6 | COc1cccc(-n2nnc(-c3ccccc3NC(=O)Nc3ccccc3[N+](=O)[O-])n2)c1 | 4.1 | 4.55 | 5.45 | – | > 100 | > 100 | – | 1.172 | – | – | –
7 | COc1cccc(-n2nnc(-c3ccccc3NC(=O)Nc3ccc(NC(C)=O)cc3)n2)c1 | 1.51 | 2.11 | 2.92 | – | > 100 | > 100 | 0.454 | – | – | – | –
8 | COc1cccc(-n2nnc(-c3ccccc3NC(=O)Nc3ccc(NC(=O)CBr)cc3)n2)c1 | 2.2 | 2.71 | 3.71 | – | > 100 | > 100 | – | – | – | – | –
9 | O=C(Nc1ccc([N+](=O)[O-])cc1)Nc1ccccc1C(=O)Nc1ccc(C(F)(F)F)cc1 | 2.12 | 2.81 | 3.31 | – | > 100 | > 100 | – | – | – | – | –
10 | COc1cccc(-n2nnc(-c3ccccc3NC(=O)c3ccc(N=C=S)cc3)n2)c1 | 4.43 | 4.88 | 5.68 | – | 59 | 44.7 | – | 1.221 | – | – | –
11 | CCCc1ccc(NC(=O)c2ccccc2NC(=O)c2ccc(OC)cc2)cc1 | 7.97 | 10 | 13.1 | – | > 100 | > 100 | 2.012 | 2.526 | – | – | –
12 | COc1ccc(-n2nnc(-c3ccccc3NC(=O)c3ccc([N+](=O)[O-])cc3)n2)cc1 | 1.76 | 2.49 | 2.73 | – | 27.4 | 24.7 | – | – | – | – | –
13 | CCCc1ccc(NC(=O)c2ccccc2NC(=O)Nc2ccc(Br)cc2)cc1 | 4.43 | 9.87 | 12.35 | – | > 100 | > 100 | – | – | – | – | –
14 | COc1ccc(-n2nnc(-c3ccccc3NC(=O)Nc3ccc([N+](=O)[O-])cc3)n2)cc1 | 1.54 | 2.52 | 3.34 | – | 28.5 | 21.7 | – | – | – | – | –
15 | COc1cccc(-n2nnc(-c3ccccc3NC(=O)c3cccc([N+](=O)[O-])c3)n2)c1 | 4.03 | 6.47 | 8.38 | – | 25.4 | 19.9 | 1.39 | – | – | – | –
16 | CCCc1ccc(NC(=O)c2ccccc2NC(=O)Nc2cccc([N+](=O)[O-])c2)cc1 | 1.62 | 2.33 | 3.03 | 0.348 | > 100 | > 100 | – | – | Dose-dependent effect | 3.55 | –
17 | COc1cccc(-n2nnc(-c3ccccc3NC(=O)Nc3cccc([N+](=O)[O-])c3)n2)c1 | – | – | – | – | > 100 | > 100 | – | – | – | – | –
18 | CCCc1ccc(NC(=O)c2ccccc2NC(=O)Nc2ccc(OC)cc2)cc1 | 4.58 | 10.12 | 15.68 | – | > 100 | > 100 | – | – | – | – | –
19 | COc1cccc(-n2nnc(-c3ccccc3NC(=O)c3ccc(N=[N+]=[N-])cc3)n2)c1 | 5.89 | 6.98 | 7.51 | – | 21.5 | 20.3 | – | – | – | – | –
20 | COc1cccc(-n2nnc(-c3ccccc3NC(=O)Nc3ccc(N=[N+]=[N-])cc3)n2)c1 | 3.19 | 3.21 | 4.25 | 0.685 | > 100 | > 100 | – | – | – | – | –
21 | COc1cccc(-n2nnc(-c3ccccc3NC(=O)c3ccc(NC(=O)CBr)cc3)n2)c1 | 1.32 | 2.07 | 2.81 | – | > 100 | > 100 | – | – | – | – | –
22 | COc1cccc(-n2nnc(-c3ccccc3NC(=O)c3ccccc3[N+](=O)[O-])n2)c1 | 5.12 | 6.14 | 8.74 | – | 44.7 | 38.9 | 1.32 | – | – | – | –
23 | CCCc1ccc(NC(=O)c2ccccc2NC(=O)c2ccccc2[N+](=O)[O-])cc1 | 7.7 | 9.36 | 11.75 | – | > 100 | > 100 | – | – | – | – | –
24 | COc1cccc(-n2nnc(-c3ccccc3NC(=O)Nc3ccc([N+](=O)[O-])cc3)n2)c1 | 1.87 | 2.53 | 3.87 | – | > 100 | > 100 | – | 0.832 | Dose-dependent effect | 1.94 | –
25 | COc1cccc(-n2nnc(-c3ccccc3NC(=O)c3ccc(NC(C)=O)cc3)n2)c1 | 5.58 | 6.16 | 6.34 | – | > 100 | > 100 | – | – | – | – | –
26 | CCCc1ccc(C(=O)Nc2ccccc2-c2nnn(-c3cccc(OC)c3)n2)cc1 | 0.61 | 0.96 | 1.65 | – | 40.6 | 27 | 0.207 | – | – | – | –
27 | COc1ccc(NC(=O)Nc2ccccc2-c2nnn(-c3ccc(OC)cc3)n2)cc1 | 1.56 | 1.78 | 2.06 | 0.355 | 57.4 | 52.5 | 0.382 | – | – | – | –
28 | CCCc1ccc(NC(=O)c2ccccc2NC(=O)c2cccc([N+](=O)[O-])c2)cc1 | 2.38 | 3.38 | 3.65 | 0.512 | > 100 | > 100 | 0.727 | 0.785 | – | – | –
29 | CCCc1ccc(NC(=O)c2ccccc2NC(=O)Nc2ccccc2[N+](=O)[O-])cc1 | 5.21 | 11.92 | 17.03 | – | > 100 | > 100 | – | – | – | – | –
30 | COc1cccc(-n2nnc(-c3ccccc3NC(=O)c3ccc(N)cc3)n2)c1 | 1.39 | 2.28 | 2.55 | – | > 100 | > 100 | – | – | Dose-dependent effect | – | 0.52

From ChEMBL document CHEMBL4043226, “Design, synthesis and biological evaluation of benzamide and phenyltetrazole derivatives with amide and urea linkers as BCRP inhibitors” (Bioorg Med Chem Lett, 2017)
